# Test results taken from BindingDB's records for PubMed 29656203 (n/a, 2018).
# Experiment: Inhibition of angiotensin II (unknown origin)
row,IC50 [nM],Compound
1,22,CCCCc1nc2ccc(C3CC(c4ccc(C)cc4)=NO3)cc2c(=O)n1Cc1ccc(-c2ccccc2-c2nnnn2C(c2ccccc2)(c2ccccc2)c2ccccc2)cc1 (configuration not stated)
2,22,CCCCc1nc2ccc(C3CC(C(=O)OCC)=NO3)cc2c(=O)n1Cc1ccc(-c2ccccc2-c2nnnn2C(c2ccccc2)(c2ccccc2)c2ccccc2)cc1 (configuration not stated)
